± gives the expanded uncertainty stated by the source.
Assay: excess molar enthalpy (molar enthalpy of mixing); xn = mol fraction of the nth substance listed
Conditions: 101 kPa, Liquid, Flow calorimetry

SMILES: CCCCCO [pentan-1-ol] + C1CCCCC1
- excess molar enthalpy (298.15 K, x1 = 0.05): 0.0797 ± 0.00177 kcal/mol
- excess molar enthalpy (298.15 K, x1 = 0.1001): 0.105 ± 0.00229 kcal/mol
- excess molar enthalpy (298.15 K, x1 = 0.1501): 0.124 ± 0.00263 kcal/mol
- excess molar enthalpy (298.15 K, x1 = 0.2022): 0.139 ± 0.00311 kcal/mol
- excess molar enthalpy (298.15 K, x1 = 0.2522): 0.149 ± 0.00311 kcal/mol
- excess molar enthalpy (298.15 K, x1 = 0.3022): 0.155 ± 0.00335 kcal/mol
- excess molar enthalpy (298.15 K, x1 = 0.3523): 0.158 ± 0.00335 kcal/mol
- excess molar enthalpy (298.15 K, x1 = 0.4023): 0.157 ± 0.00335 kcal/mol
- excess molar enthalpy (298.15 K, x1 = 0.4523): 0.153 ± 0.00335 kcal/mol
- excess molar enthalpy (298.15 K, x1 = 0.5022): 0.146 ± 0.00311 kcal/mol
- excess molar enthalpy (298.15 K, x1 = 0.5522): 0.137 ± 0.00287 kcal/mol
- excess molar enthalpy (298.15 K, x1 = 0.6022): 0.126 ± 0.00263 kcal/mol
- excess molar enthalpy (298.15 K, x1 = 0.6522): 0.113 ± 0.00239 kcal/mol
- excess molar enthalpy (298.15 K, x1 = 0.7022): 0.0982 ± 0.00215 kcal/mol
- excess molar enthalpy (298.15 K, x1 = 0.7522): 0.083 ± 0.00182 kcal/mol
- excess molar enthalpy (298.15 K, x1 = 0.8021): 0.065 ± 0.00143 kcal/mol
- excess molar enthalpy (298.15 K, x1 = 0.8501): 0.0493 ± 0.00112 kcal/mol
- excess molar enthalpy (298.15 K, x1 = 0.9): 0.033 ± 0.000765 kcal/mol
- excess molar enthalpy (298.15 K, x1 = 0.95): 0.0162 ± 0.00043 kcal/mol
- excess molar enthalpy (298.15 K, x1 = 1): 0 ± 0.000239 kcal/mol
- excess molar enthalpy (313.15 K, x1 = 0.05): 0.107 ± 0.00237 kcal/mol
- excess molar enthalpy (313.15 K, x1 = 0.1): 0.139 ± 0.00311 kcal/mol
- excess molar enthalpy (313.15 K, x1 = 0.1501): 0.161 ± 0.00359 kcal/mol
- excess molar enthalpy (313.15 K, x1 = 0.2021): 0.177 ± 0.00382 kcal/mol
- excess molar enthalpy (313.15 K, x1 = 0.2522): 0.188 ± 0.00406 kcal/mol
- excess molar enthalpy (313.15 K, x1 = 0.3022): 0.193 ± 0.00406 kcal/mol
- excess molar enthalpy (313.15 K, x1 = 0.3521): 0.196 ± 0.0043 kcal/mol
- excess molar enthalpy (313.15 K, x1 = 0.4022): 0.194 ± 0.00406 kcal/mol
- excess molar enthalpy (313.15 K, x1 = 0.4522): 0.187 ± 0.00406 kcal/mol
- excess molar enthalpy (313.15 K, x1 = 0.5022): 0.178 ± 0.00382 kcal/mol
- excess molar enthalpy (313.15 K, x1 = 0.5522): 0.17 ± 0.00359 kcal/mol
- excess molar enthalpy (313.15 K, x1 = 0.6022): 0.152 ± 0.00335 kcal/mol
- excess molar enthalpy (313.15 K, x1 = 0.6519): 0.139 ± 0.00311 kcal/mol
- excess molar enthalpy (313.15 K, x1 = 0.7019): 0.118 ± 0.00263 kcal/mol
- excess molar enthalpy (313.15 K, x1 = 0.7521): 0.0985 ± 0.00215 kcal/mol
- excess molar enthalpy (313.15 K, x1 = 0.8021): 0.0799 ± 0.00177 kcal/mol
- excess molar enthalpy (313.15 K, x1 = 0.8501): 0.0598 ± 0.00134 kcal/mol
- excess molar enthalpy (313.15 K, x1 = 0.9): 0.0381 ± 0.000884 kcal/mol
- excess molar enthalpy (313.15 K, x1 = 0.95): 0.0191 ± 0.000502 kcal/mol
- excess molar enthalpy (313.15 K, x1 = 1): 0 ± 0.000239 kcal/mol

SMILES: CCCCCO [pentan-1-ol] + Cc1ccccc1
- excess molar enthalpy (298.15 K, x1 = 0.0511): 0.129 ± 0.00287 kcal/mol
- excess molar enthalpy (298.15 K, x1 = 0.1004): 0.182 ± 0.00382 kcal/mol
- excess molar enthalpy (298.15 K, x1 = 0.1497): 0.211 ± 0.00454 kcal/mol
- excess molar enthalpy (298.15 K, x1 = 0.2012): 0.232 ± 0.00502 kcal/mol
- excess molar enthalpy (298.15 K, x1 = 0.2507): 0.244 ± 0.00526 kcal/mol
- excess molar enthalpy (298.15 K, x1 = 0.3003): 0.251 ± 0.00526 kcal/mol
- excess molar enthalpy (298.15 K, x1 = 0.35): 0.254 ± 0.0055 kcal/mol
- excess molar enthalpy (298.15 K, x1 = 0.4018): 0.249 ± 0.00526 kcal/mol
- excess molar enthalpy (298.15 K, x1 = 0.4516): 0.242 ± 0.00526 kcal/mol
- excess molar enthalpy (298.15 K, x1 = 0.5016): 0.229 ± 0.00502 kcal/mol
- excess molar enthalpy (298.15 K, x1 = 0.5517): 0.214 ± 0.00454 kcal/mol
- excess molar enthalpy (298.15 K, x1 = 0.6018): 0.195 ± 0.0043 kcal/mol
- excess molar enthalpy (298.15 K, x1 = 0.65): 0.174 ± 0.00382 kcal/mol
- excess molar enthalpy (298.15 K, x1 = 0.7003): 0.151 ± 0.00335 kcal/mol
- excess molar enthalpy (298.15 K, x1 = 0.7507): 0.126 ± 0.00263 kcal/mol
- excess molar enthalpy (298.15 K, x1 = 0.8012): 0.0992 ± 0.00217 kcal/mol
- excess molar enthalpy (298.15 K, x1 = 0.8497): 0.0747 ± 0.00165 kcal/mol
- excess molar enthalpy (298.15 K, x1 = 0.9004): 0.0485 ± 0.0011 kcal/mol
- excess molar enthalpy (298.15 K, x1 = 0.9491): 0.0243 ± 0.000598 kcal/mol
- excess molar enthalpy (298.15 K, x1 = 1): 0 ± 0.000239 kcal/mol
- excess molar enthalpy (313.15 K, x1 = 0.0511): 0.143 ± 0.00311 kcal/mol
- excess molar enthalpy (313.15 K, x1 = 0.1004): 0.211 ± 0.00454 kcal/mol
- excess molar enthalpy (313.15 K, x1 = 0.1498): 0.252 ± 0.0055 kcal/mol
- excess molar enthalpy (313.15 K, x1 = 0.2013): 0.279 ± 0.00598 kcal/mol
- excess molar enthalpy (313.15 K, x1 = 0.2508): 0.294 ± 0.00621 kcal/mol
- excess molar enthalpy (313.15 K, x1 = 0.3003): 0.299 ± 0.00645 kcal/mol
- excess molar enthalpy (313.15 K, x1 = 0.35): 0.299 ± 0.00645 kcal/mol
- excess molar enthalpy (313.15 K, x1 = 0.3999): 0.3 ± 0.00645 kcal/mol
- excess molar enthalpy (313.15 K, x1 = 0.4518): 0.287 ± 0.00621 kcal/mol
- excess molar enthalpy (313.15 K, x1 = 0.5016): 0.277 ± 0.00598 kcal/mol
- excess molar enthalpy (313.15 K, x1 = 0.5517): 0.26 ± 0.0055 kcal/mol
- excess molar enthalpy (313.15 K, x1 = 0.6019): 0.24 ± 0.00502 kcal/mol
- excess molar enthalpy (313.15 K, x1 = 0.6501): 0.216 ± 0.00454 kcal/mol
- excess molar enthalpy (313.15 K, x1 = 0.7004): 0.19 ± 0.00406 kcal/mol
- excess molar enthalpy (313.15 K, x1 = 0.7508): 0.159 ± 0.00335 kcal/mol
- excess molar enthalpy (313.15 K, x1 = 0.8013): 0.129 ± 0.00287 kcal/mol
- excess molar enthalpy (313.15 K, x1 = 0.8498): 0.0978 ± 0.00215 kcal/mol
- excess molar enthalpy (313.15 K, x1 = 0.9005): 0.0638 ± 0.00143 kcal/mol
- excess molar enthalpy (313.15 K, x1 = 0.9492): 0.0315 ± 0.000765 kcal/mol
- excess molar enthalpy (313.15 K, x1 = 1): 0 ± 0.000239 kcal/mol

SMILES: Cc1ccccc1 [toluene] + CCCCCO
- excess molar enthalpy (298.15 K, x2 = 0): 0 ± 0.000239 kcal/mol
- excess molar enthalpy (313.15 K, x2 = 0): 0 ± 0.000239 kcal/mol

SMILES: C1CCCCC1 [cyclohexane] + CCCCCO
- excess molar enthalpy (298.15 K, x2 = 0): 0 ± 0.000239 kcal/mol
- excess molar enthalpy (313.15 K, x2 = 0): 0 ± 0.000239 kcal/mol

From the NIST ThermoML archive (doi:10.1016/j.fluid.2012.01.007)
